BindingDB's records for doi:10.1021/jm010087e (The University of Western Australia, 2001)

Experiment: Inhibitory activity against clostridium histolyticum collagenase

Row | SMILES | Ki
1 | CC(C(=O)O)N(Cc1ccccc1[N+](=O)[O-])C(=O)NS(=O)(=O)c1ccccc1 (stereo unspecified) [2-((2-nitrobenzyl){[(phenylsulfonyl)amino]carbonyl}amino)propanoic acid] | 3600 nM
2 | COc1ccc(S(=O)(=O)N(Cc2ccccc2[N+](=O)[O-])C(C)C(=O)NO)cc1 (stereo unspecified) [2-(N-(2-nitrobenzyl)-4-methoxyphenylsulfonamido)-N-hydroxypropanamide] | 19 nM
3 | CC(C(=O)NO)N(Cc1ccccc1[N+](=O)[O-])C(=O)Nc1ccc(F)cc1F (stereo unspecified) [2-[3-(2,4-Difluoro-phenyl)-1-(2-nitro-benzyl)-ureido]-N-hydroxy-propionamide] | 12 nM
4 | CC(C(=O)O)N(Cc1ccccc1[N+](=O)[O-])C(=O)Nc1ccc(F)cc1F (stereo unspecified) [2-[3-(2,4-Difluoro-phenyl)-1-(2-nitro-benzyl)-ureido]-propionic acid] | 6500 nM
5 | CC(C(=O)NO)N(Cc1ccccc1[N+](=O)[O-])C(=O)Nc1ccc(Cl)c(Cl)c1 (stereo unspecified) [2-[3-(3,4-Dichloro-phenyl)-1-(2-nitro-benzyl)-ureido]-N-hydroxy-propionamide] | 14 nM
6 | CC(C(=O)O)N(Cc1ccccc1[N+](=O)[O-])C(=O)Nc1ccc(Cl)c(Cl)c1 (stereo unspecified) [2-[3-(3,4-Dichloro-phenyl)-1-(2-nitro-benzyl)-ureido]-propionic acid] | 5300 nM
7 | CC(C(=O)NO)N(Cc1ccccc1[N+](=O)[O-])C(=O)Nc1cccc(Cl)c1 (stereo unspecified) [2-[3-(3-Chloro-phenyl)-1-(2-nitro-benzyl)-ureido]-N-hydroxy-propionamide] | 17 nM
8 | CC(C(=O)O)N(Cc1ccccc1[N+](=O)[O-])C(=O)Nc1cccc(Cl)c1 (stereo unspecified) [2-[3-(3-Chloro-phenyl)-1-(2-nitro-benzyl)-ureido]-propionic acid] | 6600 nM
9 | CC(C(=O)NO)N(Cc1ccccc1[N+](=O)[O-])C(=O)Nc1ccc(Cl)cc1 (stereo unspecified) [2-[3-(4-Chloro-phenyl)-1-(2-nitro-benzyl)-ureido]-N-hydroxy-propionamide] | 19 nM
10 | CC(C(=O)O)N(Cc1ccccc1[N+](=O)[O-])C(=O)Nc1ccc(Cl)cc1 (stereo unspecified) [2-[3-(4-Chloro-phenyl)-1-(2-nitro-benzyl)-ureido]-propionic acid] | 6800 nM
11 | CC(C(=O)NO)N(Cc1ccccc1[N+](=O)[O-])C(=O)Nc1ccc(F)cc1 (stereo unspecified) [2-[3-(4-Fluoro-phenyl)-1-(2-nitro-benzyl)-ureido]-N-hydroxy-propionamide] | 15 nM
12 | CC(C(=O)O)N(Cc1ccccc1[N+](=O)[O-])C(=O)Nc1ccc(F)cc1 (stereo unspecified) [2-[3-(4-Fluoro-phenyl)-1-(2-nitro-benzyl)-ureido]-propionic acid] | 6200 nM
13 | CC(C(=O)NO)N(Cc1ccccc1[N+](=O)[O-])C(=S)NC(=O)c1ccccc1 (stereo unspecified) [2-[3-Benzoyl-1-(2-nitro-benzyl)-thioureido]-N-hydroxy-propionamide] | 8 nM
14 | CC(C(=O)O)N(Cc1ccccc1[N+](=O)[O-])C(=S)NC(=O)c1ccccc1 (stereo unspecified) [2-[3-Benzoyl-1-(2-nitro-benzyl)-thioureido]-propionic acid] | 700 nM
15 | CC(C(=O)O)N(Cc1ccccc1[N+](=O)[O-])C(=O)Nc1cccc2ccccc12 (stereo unspecified) [2-[3-Naphthalen-1-yl-1-(2-nitro-benzyl)-ureido]-propionic acid] | 5000 nM
16 | CC(C(=O)NO)N(Cc1ccccc1[N+](=O)[O-])Sc1ccc([N+](=O)[O-])cc1[N+](=O)[O-] (stereo unspecified) [2-[(2,4-Dinitro-phenylsulfanyl)-(2-nitro-benzyl)-amino]-N-hydroxy-propionamide] | 9 nM
17 | CC(C(=O)O)N(Cc1ccccc1[N+](=O)[O-])Sc1ccc([N+](=O)[O-])cc1[N+](=O)[O-] (stereo unspecified) [2-[(2,4-Dinitro-phenylsulfanyl)-(2-nitro-benzyl)-amino]-propionic acid] | 5200 nM
18 | CC(C(=O)NO)N(Cc1ccccc1[N+](=O)[O-])S(=O)(=O)c1cc(Cl)ccc1Cl (stereo unspecified) [2-[(2,5-Dichloro-benzenesulfonyl)-(2-nitro-benzyl)-amino]-N-hydroxy-propionamide] | 14 nM
19 | CC(C(=O)O)N(Cc1ccccc1[N+](=O)[O-])S(=O)(=O)c1cc(Cl)ccc1Cl (stereo unspecified) [2-[(2,5-Dichloro-benzenesulfonyl)-(2-nitro-benzyl)-amino]-propionic acid] | 3400 nM
20 | CC(C(=O)O)N(Cc1ccccc1[N+](=O)[O-])S(=O)(=O)c1ccccc1[N+](=O)[O-] (stereo unspecified) [2-[(2-Nitro-benzenesulfonyl)-(2-nitro-benzyl)-amino]-propionic acid] | 4400 nM
21 | Cc1cc(C)c(S(=O)(=O)N(Cc2ccccc2[N+](=O)[O-])C(C)C(=O)O)c(C)c1 (stereo unspecified) [2-[(2-Nitro-benzyl)-(2,4,6-trimethyl-benzenesulfonyl)-amino]-propionic acid] | 6000 nM
22 | CC(C(=O)O)N(Cc1ccccc1[N+](=O)[O-])Sc1ccccc1[N+](=O)[O-] (stereo unspecified) [2-[(2-Nitro-benzyl)-(2-nitro-phenylsulfanyl)-amino]-propionic acid] | 6200 nM
23 | CC(C(=O)O)N(Cc1ccccc1[N+](=O)[O-])S(=O)(=O)c1cccc(C(F)(F)F)c1 (stereo unspecified) [2-[(2-Nitro-benzyl)-(3-trifluoromethyl-benzenesulfonyl)-amino]-propionic acid] | 400 nM

Row | SMILES | Ki
24 | CC(C(=O)O)N(Cc1ccccc1[N+](=O)[O-])Sc1ccc([N+](=O)[O-])cc1 (stereo unspecified) [2-[(2-Nitro-benzyl)-(4-nitro-phenylsulfanyl)-amino]-propionic acid] | 6000 nM
25 | CC(C(=O)O)N(Cc1ccccc1[N+](=O)[O-])S(=O)(=O)C(F)(F)C(F)(F)C(F)(F)C(F)(F)F (stereo unspecified) [2-[(2-Nitro-benzyl)-(nonafluorobutane-1-sulfonyl)-amino]-propionic acid] | 2100 nM
26 | CC(C(=O)O)N(Cc1ccccc1[N+](=O)[O-])S(=O)(=O)c1cccc2cccnc12 (stereo unspecified) [2-[(2-Nitro-benzyl)-(quinoline-8-sulfonyl)-amino]-propionic acid] | 2000 nM
27 | CC(C(=O)O)N(Cc1ccccc1[N+](=O)[O-])S(=O)(=O)c1cccs1 (stereo unspecified) [2-[(2-Nitro-benzyl)-(thiophene-2-sulfonyl)-amino]-propionic acid] | 2000 nM
28 | Cc1ccc(S(=O)(=O)N(Cc2ccccc2[N+](=O)[O-])C(C)C(=O)O)cc1 (stereo unspecified) [2-[(2-Nitro-benzyl)-(toluene-4-sulfonyl)-amino]-propionic acid] | 17000 nM
29 | CC(C(=O)O)N(Cc1ccccc1[N+](=O)[O-])S(=O)(=O)c1c(F)c(F)c(F)c(F)c1F (stereo unspecified) [2-[(2-Nitro-benzyl)-pentafluorobenzenesulfonyl-amino]-propionic acid] | 300 nM
30 | CC(C(=O)O)N(Cc1ccccc1[N+](=O)[O-])S(=O)(=O)Cc1ccccc1 (stereo unspecified) [2-[(2-Nitro-benzyl)-phenylmethanesulfonyl-amino]-propionic acid] | 18000 nM
31 | CC(C(=O)O)N(Cc1ccccc1[N+](=O)[O-])S(=O)(=O)C(Cl)(Cl)Cl (stereo unspecified) [2-[(2-Nitro-benzyl)-trichloromethanesulfonyl-amino]-propionic acid] | 5000 nM
32 | CC(C(=O)O)N(Cc1ccccc1[N+](=O)[O-])S(=O)(=O)C(F)(F)F (stereo unspecified) [2-[(2-Nitro-benzyl)-trifluoromethanesulfonyl-amino]-propionic acid] | 5100 nM
33 | CC(C(=O)NO)N(Cc1ccccc1[N+](=O)[O-])S(=O)(=O)c1cc(Cl)cc(Cl)c1O (stereo unspecified) [2-[(3,5-Dichloro-2-hydroxy-benzenesulfonyl)-(2-nitro-benzyl)-amino]-N-hydroxy-propionamide] | 10 nM
34 | CC(C(=O)O)N(Cc1ccccc1[N+](=O)[O-])S(=O)(=O)c1cc(Cl)cc(Cl)c1O (stereo unspecified) [2-[(3,5-Dichloro-2-hydroxy-benzenesulfonyl)-(2-nitro-benzyl)-amino]-propionic acid] | 2700 nM
35 | CC(C(=O)NO)N(Cc1ccccc1[N+](=O)[O-])S(=O)(=O)c1ccc([N+](=O)[O-])c(Cl)c1 (stereo unspecified) [2-[(3-Chloro-4-nitro-benzenesulfonyl)-(2-nitro-benzyl)-amino]-N-hydroxy-propionamide] | 9 nM
36 | CC(C(=O)O)N(Cc1ccccc1[N+](=O)[O-])S(=O)(=O)c1ccc([N+](=O)[O-])c(Cl)c1 (stereo unspecified) [2-[(3-Chloro-4-nitro-benzenesulfonyl)-(2-nitro-benzyl)-amino]-propionic acid] | 3100 nM
37 | CC(C(=O)O)N(Cc1ccccc1[N+](=O)[O-])S(=O)(=O)c1cccc([N+](=O)[O-])c1 (stereo unspecified) [2-[(3-Nitro-benzenesulfonyl)-(2-nitro-benzyl)-amino]-propionic acid] | 5200 nM
38 | COc1ccc(S(=O)(=O)N(Cc2ccccc2[N+](=O)[O-])C(C)C(=O)O)cc1NC(=O)OC(C)(C)C (stereo unspecified) [2-[(3-tert-Butoxycarbonylamino-4-methoxy-benzenesulfonyl)-(2-nitro-benzyl)-amino]-propionic acid] | 2500 nM
39 | CC(C(=O)O)N(Cc1ccccc1[N+](=O)[O-])S(=O)(=O)c1cccc(NC(=O)OC(C)(C)C)c1 (stereo unspecified) [2-[(3-tert-Butoxycarbonylamino-benzenesulfonyl)-(2-nitro-benzyl)-amino]-propionic acid] | 2500 nM
40 | CC(=O)c1ccc(S(=O)(=O)N(Cc2ccccc2[N+](=O)[O-])C(C)C(=O)NO)cc1 (stereo unspecified) [2-[(4-Acetyl-benzenesulfonyl)-(2-nitro-benzyl)-amino]-N-hydroxy-propionamide] | 10 nM
41 | CC(=O)c1ccc(S(=O)(=O)N(Cc2ccccc2[N+](=O)[O-])C(C)C(=O)O)cc1 (stereo unspecified) [2-[(4-Acetyl-benzenesulfonyl)-(2-nitro-benzyl)-amino]-propionic acid] | 2000 nM
42 | CC(=O)Nc1ccc(S(=O)(=O)N(Cc2ccccc2[N+](=O)[O-])C(C)C(=O)NO)cc1 (stereo unspecified) [2-[(4-Acetylamino-benzenesulfonyl)-(2-nitro-benzyl)-amino]-N-hydroxy-propionamide] | 12 nM
43 | CC(=O)Nc1ccc(S(=O)(=O)N(Cc2ccccc2[N+](=O)[O-])C(C)C(=O)O)cc1 (stereo unspecified) [2-[(4-Acetylamino-benzenesulfonyl)-(2-nitro-benzyl)-amino]-propionic acid] | 3300 nM
44 | CC(C(=O)NO)N(Cc1ccccc1[N+](=O)[O-])S(=O)(=O)c1ccc(Br)cc1 (stereo unspecified) [2-[(4-Bromo-benzenesulfonyl)-(2-nitro-benzyl)-amino]-N-hydroxy-propionamide] | 33 nM
45 | CC(C(=O)O)N(Cc1ccccc1[N+](=O)[O-])S(=O)(=O)c1ccc(Br)cc1 (stereo unspecified) [2-[(4-Bromo-benzenesulfonyl)-(2-nitro-benzyl)-amino]-propionic acid] | 10000 nM
46 | CC(C(=O)NO)N(Cc1ccccc1[N+](=O)[O-])S(=O)(=O)c1ccc(Cl)cc1 (stereo unspecified) [2-[(4-Chloro-benzenesulfonyl)-(2-nitro-benzyl)-amino]-N-hydroxy-propionamide] | 32 nM
